In publication PMC11253539, “Structural and mechanistic insights into the transport of aristolochic acids and their active metabolites by human serum albumin” (The Journal of Biological Chemistry, 2024):
“And” between values parts separate entries of the source, which are not always exact repeats. Equal entries are not always repeated. Where two headings read alike, the source gives them in different places.

How the values were obtained:
[1] = molecular target: T1, HSA (HSAA3782 and HSAA8763 mercaptoalbumins) (Homo sapiens, UniProt P02768); assay: HSA Trp214 fluorescence quenching assay; type: binding
T1 construct: two human serum albumin (HSA) samples derived from pooled human plasma; purchased Sigma Aldrich A3782; A8763; host or cells: pooled human plasma
T1 sequence (P02768 25-609): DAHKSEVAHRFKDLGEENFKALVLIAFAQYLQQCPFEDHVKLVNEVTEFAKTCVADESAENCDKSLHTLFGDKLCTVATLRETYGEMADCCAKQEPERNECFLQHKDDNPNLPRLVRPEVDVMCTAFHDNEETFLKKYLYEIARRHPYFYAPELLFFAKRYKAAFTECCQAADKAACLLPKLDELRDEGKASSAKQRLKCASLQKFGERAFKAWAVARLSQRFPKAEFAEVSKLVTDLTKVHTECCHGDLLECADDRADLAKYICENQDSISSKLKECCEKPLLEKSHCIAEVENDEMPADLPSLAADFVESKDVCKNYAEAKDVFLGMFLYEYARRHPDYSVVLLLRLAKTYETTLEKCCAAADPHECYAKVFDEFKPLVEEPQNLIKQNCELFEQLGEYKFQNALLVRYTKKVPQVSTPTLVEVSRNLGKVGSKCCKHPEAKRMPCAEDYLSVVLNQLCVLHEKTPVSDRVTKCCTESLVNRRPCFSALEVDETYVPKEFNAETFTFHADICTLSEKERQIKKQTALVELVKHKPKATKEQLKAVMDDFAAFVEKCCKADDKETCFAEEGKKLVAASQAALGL
Description: Ligand-induced quenching of the intrinsic HSA fluorescence has been assessed by monitoring a single Trp^214 residue located within the IIA binding cavity to derive equilibrium dissociation constants (KD) for numerous endogenous and exogenous molecules including aristolochic acids ([51], [52]). […] Addressing this deficiency, we prepared mercaptoalbumins from HSAA3782 and HSAA8763, consisting of fatty acid-free and limited fatty acid-containing HSA, respectively. We subsequently employed these well-defined HSA samples to conduct comparative fluorescence quenching studies in the presence of AA-I, AA-II, and their respective metabolites while concurrently evaluating the impact of fatty acid content on relative binding affinities.
Equilibrium fluorescence spectra of monomeric HSA samples were collected on an ISS PC1 photon counting spectrophotometer. An excitation wavelength of 295 nm was employed for HSAA3782 and HSAA8763 to selectively monitor tryptophan and avoid contributions of tyrosine residues. The excitation and emission slits were set to 1 nm and 2 nm, respectively. Prior to initiating the experiment, a stock solution of each AA compound (i.e., AA-I, AA-II, AL-I-NOH, AL-II-NOH, AL-I-NOAc. and AL-I-NOSO3) was prepared in DMSO by serial dilution to a 100-fold excess of their final concentration employed in the quenching experiments. HSA samples were diluted to 0.5, 1.0, and 2.5 μM in 10 mM KPi buffer (pH 7.5) and divided into 1 ml aliquots in Eppendorf tubes. A 10 μl aliquot of each AA compound was added to the HSA solutions to achieve a 0.2 to 50 μM concentration range in 1% DMSO. Each AA-HSA mixture was allowed to equilibrate at room temperature for at least 5 min, transferred to a 10 mm × 5 mm quartz cuvette, and emission spectrum recorded over the wavelength range of 310 to 460 nm employing a 2 nm step interval. Following each measurement, the quartz cuvette was cleaned, and the experiment repeated with the next AA:HSA ratio. […] Peak emission intensities at 340 nm were employed to construct fluorescence titration profiles for each AA compound.
Fluorescence titration profiles of the HSA quenching assays were generated using SigmaPlot 13.0. When applicable, the mean and standard deviations obtained from 3 to 5 independent measurements are reported. […] Invoking the SigmaPlot software suite, we applied the following binding model ([87]): F=Ffree−(Ffree−Fbound)∗[…] where F represents the fluorescence signal observed at each ligand concentration (Lt) and Pt is the total protein concentration. Upon fitting, one obtains values of Ffree and Fbound that correspond to the fluorescence of unbound and fully bound HSA, respectively. The number of binding sites and their respective affinities has been determined for AA-I and AA-II interactions with HSA via application of isothermal titration calorimetry as described in the following section.

HSA = system: HSA; set-up: method as in PMID 16413837; conditions: numerous binding sites; cited from earlier work
HSA (defatted HSAA3782) = molecular target: T2, HSA (defatted HSAA3782) (Homo sapiens, UniProt P02768); assay: Isothermal titration calorimetry of AA-HSA interactions; type: binding; conditions: for Ka (macroscopic association constant), Site 1 / Kd / Ka (macroscopic association constant), Site 2 / Ka (KA1), site 1 / Ka (KA2), site 2: two-site model; for Ka (KA1), site 1: site 1, 25 °C; for Ka (KA2), site 2: site 2, 25 °C; for ΔG°, Site 1 / ΔG°, Site 2: ΔG° = −RTlnKa, T = 298 K
T2 construct: two human serum albumin (HSA) samples derived from pooled human plasma; purchased Sigma Aldrich A3782; host or cells: pooled human plasma
T2 sequence (P02768 25-609): as above
Description: We have assessed the binding affinities of AA-I and AA-II for HSAA3782 by conducting a series of ITC experiments. […] An initial analysis of the AA-HSA binding isotherms using conventional fitting programs provides a reasonable estimate for the binding stoichiometry of two AA ligands per HSA molecule. […] Given the challenges associated with baseline assignments, we subsequently employed the NITPIC/SEDPHAT/GUSSI software suite ([60]) to ensure unambiguous analysis of the binding isotherms. Singular value decomposition yields baseline-corrected association data that are analyzed via a two-site binding model to derive macroscopic affinities for AA-HSA interactions in accordance with the following relation: A+B+B↔[AB]+B↔ABB where A represents the HSA macromolecule and B represents ligand AA-I or AA-II. This binding model implies that both sites are occupied with all possible ligation states coexisting in equilibrium.
Binding parameters for the association of defatted HSAA3782 with AA-I and AA-II were determined calorimetrically employing a MicroCal VP-ITC instrument (Malvern Panalytical). Protein stock solutions (0.5–1.5 mM) were prepared by BME reduction to disrupt potential CyS34-CyS34 dimers and dialyzed against three 500 ml exchanges of 10 mM sodium phosphate buffer (pH 7.5). Aliquots of the respective AA ligand stocks were dissolved in protein dialysate and the final DMSO concentration adjusted to 2%. The HSA standard was prepared by diluting an appropriate aliquot in dialysate containing 2% DMSO to match the syringe solution contents. Each ITC experiment consists of thirty consecutive 10.0 μl injections during which the reaction heat is monitored and integrated over a 5-min interval under constant stirring conditions. The experimental protocol has been designed to ensure that there is at least a 15-fold excess of either AA-I or AA-II (75–200 μM) in the titration syringe relative to the initial HSA concentration (5–10 μM) in the reaction cell.
Binding isotherms acquired at 25 °C were generated by recording the integrated reaction heats normalized for AA concentration versus ligand:protein ratio. […] We subsequently applied the NITPIC/SEDPHAT/GUSSI suite of software programs ([60], [88]) to ensure unbiased baseline assignments and peak integrations that facilitated selection of an appropriate binding model to characterize this protein-ligand system. The SEDPHAT program affords significant flexibility by allowing implicit and explicit uncertainty corrections that facilitate assessment of incompetent binding species in the protein and/or ligand. A nonlinear least squares analysis of the resultant profiles invoking a symmetric two-site binding model yields an optimal fit of the isotherms and requisite macroscopic parameters for AA-HSA interactions.

[2] = fatty acid-containing HSA, mean ± SD of 3 to 5 measurements, 10 mM KPi pH 7.5, read-out: KDapp (HSAA8763)
[3] = fatty acid-free HSA, mean ± SD of 3 to 5 measurements, 10 mM KPi pH 7.5, read-out: KDapp (HSAA3782)
[4] = ITC, Site 1, 10 mM NaPO4 pH 7.5, 25 °C
[5] = ITC, Site 2, 10 mM NaPO4 pH 7.5, 25 °C

Row | Compound | Kd [1, 2] | Kd [1, 3] | Ka (macroscopic association constant), Site 1 (HSA (defatted HSAA3782); [4]) | Ka (macroscopic association constant), Site 2 (HSA (defatted HSAA3782); [5]) | Ka (KA1), site 1 (HSA (defatted HSAA3782); ITC) | Ka (KA2), site 2 (HSA (defatted HSAA3782); ITC) | ΔG°, Site 1 (HSA (defatted HSAA3782)) | ΔG°, Site 2 (HSA (defatted HSAA3782)) | further results
1 | COc1cccc2c1cc1c3c(cc4c(c32)OCO4)C(=O)N1O [AL-I-NOH, N-hydroxyaristolactam I] | 740 ± 60 nM | 650 ± 60 nM |  |  |  |  |  |  | 
2 | COc1cccc2c1cc1c3c(cc4c(c32)OCO4)C(=O)N1OC(C)=O [AL-I-NOAc] | 590 ± 70 nM | 670 ± 130 nM |  |  |  |  |  |  | 
3 | CCCCCCCCCCCCCC(=O)O [myristic acid] |  |  |  |  |  |  |  |  | affinities for HSA binding sites (HSA): 10^4 to 10^7 M^−1
4 | O=C(O)c1cc2c(c3c1c([N+](=O)[O-])cc1ccccc13)OCO2 [AA-II, aristolochic acid II] | 360 ± 30 nM | 630 ± 100 nM | 0.84 ± 0.07 10^6 M^−1 | 0.90 ± 0.10 10^6 M^−1 | 840000 M⁻¹ | 900000 M⁻¹ | -8.10 ± 0.67 kcal/mol | -8.12 ± 0.82 kcal/mol | association constant, first site (HSA (defatted HSAA3782); ITC, first of two sites, as given in abstract): 8.4 10^5 M^−1; association constant, second site (HSA (defatted HSAA3782); ITC, second of two sites, as given in abstract): 9.0 10^5 M^−1; Kd (HSA (defatted HSAA3782); ITC, Site 1, 10 mM NaPO4 pH 7.5, 25 °C, read-out: KD, Site 1): 1190 ± 190 nM; Kd (HSA (defatted HSAA3782); ITC, Site 2, 10 mM NaPO4 pH 7.5, 25 °C, read-out: KD, Site 2): 1110 ± 110 nM
5 | COc1cccc2c1cc([N+](=O)[O-])c1c(C(=O)O)cc3c(c12)OCO3 [AA-I, aristolochic acid I] |  |  | 1.5 10^6 M^−1 and 1.50 ± 0.18 10^6 M^−1 | 0.5 10^6 M^−1 and 0.54 ± 0.04 10^6 M^−1 | 1.5e+06 M⁻¹ | 540000 M⁻¹ | -8.41 ± 1.00 kcal/mol | -7.82 ± 0.58 kcal/mol | Kd (HSA (defatted HSAA3782); KD, Site 1, ITC, Site 1, 10 mM NaPO4 pH 7.5, 25 °C): 690 ± 80 nM; Kd (HSA (defatted HSAA3782); KD, Site 2, ITC, Site 2, 10 mM NaPO4 pH 7.5, 25 °C): 1870 ± 120 nM; Kd [1]: 430 ± 30 nM
